According to PubChem BioAssay (NCI):
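Cells were grown in 96-well plates and exposed to each compound for 48 hours at five concentrations; endpoints were interpolated linearly between bracketing concentrations, or set to the highest concentration if not reached. At the GI50, growth is halved. At the TGI there is no net growth.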

Columns and labels:
Assay in all cases: NCI-60 cell line screen, 48 h
OVCAR-5 ovarian = system: OVCAR-5 ovarian
PC-3 prostate = system: PC-3 prostate
NCI-H522 lung = system: NCI-H522 lung
SW-620 colon = system: SW-620 colon
IGROV1 ovarian = system: IGROV1 ovarian
UO-31 renal = system: UO-31 renal
ACHN renal = system: ACHN renal
SF-295 CNS = system: SF-295 CNS
K-562 leukemia = system: K-562 leukemia
NCI-H23 lung = system: NCI-H23 lung
SK-MEL-5 melanoma = system: SK-MEL-5 melanoma
EKVX NSCLC = system: EKVX NSCLC
SF-268 CNS = system: SF-268 CNS
SF-539 CNS = system: SF-539 CNS
786-0 renal = system: 786-0 renal
RXF 393 renal = system: RXF 393 renal
HOP-92 NSCLC = system: HOP-92 NSCLC
HOP-62 NSCLC = system: HOP-62 NSCLC
CCRF-CEM leukemia = system: CCRF-CEM leukemia
UACC-257 melanoma = system: UACC-257 melanoma
U251 CNS = system: U251 CNS
HL-60(TB) leukemia = system: HL-60(TB) leukemia
SK-MEL-2 melanoma = system: SK-MEL-2 melanoma
NCI/ADR-RES ovarian = system: NCI/ADR-RES ovarian
SNB-19 CNS = system: SNB-19 CNS
T-47D breast = system: T-47D breast
MOLT-4 leukemia = system: MOLT-4 leukemia
SK-MEL-28 melanoma = system: SK-MEL-28 melanoma
MDA-MB-231 breast = system: MDA-MB-231 breast

## NC(=O)c1c(NC(=O)c2ccc(C(F)(F)F)cc2)sc2c1CCC(=O)C2
OVCAR-5 ovarian
  GI50: 1890 nM
  TGI: 6080 nM
PC-3 prostate
  GI50: 316 nM
  TGI: 1860 nM
NCI-H522 lung
  GI50: 613 nM
  TGI: 2390 nM
SW-620 colon
  GI50: 379 nM
  TGI: 1960 nM
IGROV1 ovarian
  GI50: 1230 nM
  TGI: 4350 nM
UO-31 renal
  GI50: 645 nM
  TGI: 1900 nM
ACHN renal
  GI50: 1250 nM
  TGI: 2530 nM
SF-295 CNS
  GI50: 2170 nM
  TGI: 6010 nM
K-562 leukemia
  GI50: 300 nM
  TGI: > 41300 nM
NCI-H23 lung
  GI50: 887 nM
  TGI: 9090 nM
SK-MEL-5 melanoma
  GI50: 1730 nM
  TGI: 3320 nM
EKVX NSCLC
  GI50: 2420 nM
  TGI: 8580 nM
SF-268 CNS
  GI50: 1480 nM
  TGI: 14400 nM
SF-539 CNS
  GI50: 500 nM
  TGI: 1810 nM
786-0 renal
  GI50: 3910 nM
  TGI: 32000 nM
RXF 393 renal
  GI50: 874 nM
  TGI: 4240 nM
HOP-92 NSCLC
  GI50: 726 nM
  TGI: 3470 nM
HOP-62 NSCLC
  GI50: 3550 nM
  TGI: 17600 nM
CCRF-CEM leukemia
  GI50: 266 nM
  TGI: 14000 nM
UACC-257 melanoma
  GI50: 1980 nM
  TGI: 5900 nM
U251 CNS
  GI50: 426 nM
  TGI: 4670 nM
HL-60(TB) leukemia
  GI50: 1350 nM
  TGI: 8060 nM
SK-MEL-2 melanoma
  GI50: 3210 nM
  TGI: 11100 nM
NCI/ADR-RES ovarian
  GI50: 1480 nM
  TGI: 7490 nM
SNB-19 CNS
  GI50: 1310 nM
  TGI: 9920 nM
T-47D breast
  GI50: 545 nM
  TGI: 3340 nM
MOLT-4 leukemia
  GI50: 1070 nM
  TGI: 8320 nM
SK-MEL-28 melanoma
  GI50: 1140 nM
  TGI: 2820 nM
MDA-MB-231 breast
  GI50: 1020 nM
  TGI: 3980 nM
